Assay results taken from US11491157B2, “Cycloalkyl substituted pyrazolopyrimidines having activity against RSV” (priority 2018, dated 2022).

Experiments:
[1] = in vitro; conditions: human
Protocol: (§1) Black 384-well clear-bottom microtiter plates (Corning, Amsterdam, The Netherlands) were filled via acoustic drop ejection using the echo liquid handler (Labcyte, Sunnyvale, Calif.). 200 nL of compound stock solutions (100% DMSO) were transferred to the assay plates. 9 serial 4-fold dilutions of compound were made, creating per quadrant the same compound concentration. The assay was initiated by adding 10 μL of culture medium to each well (RPMI medium without phenol red, 10% FBS-heat inactivated, 0.04% gentamycin (50 mg/mL). All addition steps are done by using a multidrop dispenser (Thermo Scientific, Erembodegem, Belgium). Next, rgRSV224 virus (MOI=1) diluted in culture medium was added to the plates. rgRSV224 virus is an engineered virus that includes an additional GFP gene (Hallak L K, Spillmann D, Collins P L, Peeples M E. Glycosaminoglycan sulfation requirements for respiratory syncytial virus infection; Journal of virology (2000), 74(22), 10508-13) and was in-licensed from the NIH (Bethesda, Md., USA). Finally, 20 μL of a HeLa cell suspension (3,000 cells/well) were plated. Medium, virus- and mock-infected controls were included in each test. The wells contain 0.05% DMSO per volume. Cells were incubated at 37° C. in a 5% CO2 atmosphere. Three days post-virus exposure, viral replication was quantified by measuring GFP expression in the cells by an in house developed MSM laser microscope (Tibotec, Beerse, Belgium). The EC50 was defined as the 50% inhibitory concentration for GFP expression. In parallel, compounds were incubated for three days in a set of white 384-well microtiter plates (Corning) and the cytotoxicity of compounds in HeLa cells was determined by measuring the ATP content of the cells using the ATPlite kit (Perkin Elmer, Zaventem, Belgium) according to the manufacturer's instructions. The CC50 was defined as the 50% concentration for cytotoxicity.

[2] = tested on: rgRSV224 virus; experiment: Antiviral activity: rgRSV224 (GFP) replication in HeLa cells; conditions: human respiratory syncytial virus, 72 h, read-out: RSV HELA EC50
Protocol: as §1

SMILES	melting point [°C]	CC50 at 3 days [1] [nM]	EC50 [2] [nM]
C[C@@H]1c2ccccc2CCN1C(=O)c1cc(C2CC2)n2nc(-c3ccc([C@H]4C[C@@H](CO)C4)cc3F)cc2n1 [Compound 42, [cis-3-(4-{7-Cyclopropyl-5-[(1R)-1-methyl-1,2,3,4-tetrahydroisoquinoline-2-carbonyl]-pyrazolo[1,5-a]pyrimidin-2-yl}-3-fluorophenyl)cyclobutyl]methanol]	129.63	69200	263
CNC(=O)O[C@H]1C[C@@H]1c1ccc(-c2cc3nc(C(=O)N4CCc5ccccc5[C@H]4C)cc(C4CC4)n3n2)c(F)c1 [Compound 40, (1S,2R)-2-(4-{7-Cyclopropyl-5-[(1R)-1-methyl-1,2,3,4-tetrahydroisoquinoline-2-carbonyl]pyrazolo[1,5-a]pyrimidin-2-yl}-3-fluorophenyl)cyclopropyl N-methylcarbamate]	274.46	> 100000	138
CCCNC(=O)[C@H]1C[C@@H]1c1ccc(-c2cc3nc(C(=O)N4CCc5ccccc5[C@H]4C)cc(C4CC4)n3n2)c(F)c1 [Compound 15, (1S,2S)-2-(4-{7-Cyclopropyl-5-[(1R)-1-methyl-1,2,3,4-tetrahydroisoquinoline-2-carbonyl]pyrazolo[1,5-a]pyrimidin-2-yl}-3-fluorophenyl)-N-propylcyclopropane-1-carboxamide]	238.1	> 100000	408
C[C@@H]1c2ccccc2CCN1C(=O)c1cc(C2CC2)n2nc(-c3ccc([C@H]4C[C@@H]4NC(=O)NC4CC4)cc3F)cc2n1 [Compound 30, 1-Cyclopropyl-3-[(1S,2R)-2-(4-{7-cyclopropyl-5-[(1R)-1-methyl-1,2,3,4-tetrahydro-isoquinoline-2-carbonyl]pyrazolo[1,5-a]pyrimidin-2-yl}-3-fluorophenyl)cyclopropyl]urea]	213.73	40800	49
CC(C)CS(=O)(=O)NC(=O)[C@H]1C[C@@H]1c1ccc(-c2cc3nc(C(=O)N4CCc5ccccc5[C@H]4C)cc(C4CC4)n3n2)c(F)c1 [Compound 26, (1S,2S)-2-(4-{7-Cyclopropyl-5-[(1R)-1-methyl-1,2,3,4-tetrahydroisoquinoline-2-carbonyl]pyrazolo[1,5-a]pyrimidin-2-yl}-3-fluorophenyl)-N-(2-methylpropanesulfonyl)-cyclopropane-1-carboxamide]	160.53	52100	138
C[C@@H]1c2ccccc2CCN1C(=O)c1cc(C2CC2)n2nc(-c3ccc([C@H]4C[C@@H]4c4nnn[nH]4)cc3F)cc2n1 [Compound 4, (1R)-2-(7-Cyclopropyl-2-{2-fluoro-4-[(1S,2S)-2-(1H-1,2,3,4-tetrazol-5-yl)cyclopropyl]phenyl}pyrazolo[1,5-a]pyrimidine-5-carbonyl)-1-methyl-1,2,3,4-tetrahydroisoquinoline]	254.07	44000	120
C[C@@H]1c2ccccc2CCN1C(=O)c1cc(C2CC2)n2nc(-c3ccc([C@H]4C[C@@H]4C(=O)NC4COC4)cc3F)cc2n1 [Compound 19, (1S,2S)-2-(4-{7-Cyclopropyl-5-[(1R)-1-methyl-1,2,3,4-tetrahydroisoquinoline-2-carbonyl]-pyrazolo[1,5-a]pyrimidin-2-yl}-3-fluorophenyl)-N-(oxetan-3-yl)cyclopropane-1-carboxamide]	248.97	> 100000	95
CNC(=O)[C@H]1C[C@@H]1c1ccc(-c2cc3nc(C(=O)N4CCc5ccccc5[C@H]4C)cc(C4CC4)n3n2)c(F)c1 [Compound 12, (1S,2S)-2-(4-{7-Cyclopropyl-5-[(1R)-1-methyl-1,2,3,4-tetrahydroisoquinoline-2-carbonyl]pyrazolo[1,5-a]pyrimidin-2-yl}-3-fluorophenyl)-N-methylcyclopropane-1-carboxamide]	258.18	> 100000	24
